Source: PubChem BioAssay AID1963829 (Molecular Pharmacology Branch, DTP, NCI, 2024)

Test system: 935938-334-R-J1-PDC complex spheroid viability
Assay: Anticancer human tumor 935938-334-R-J1-PDC patient-derived small intestine adenocarcinoma cell line growth inhibition [POLQ]
Conditions: for IC50: curve of first compound; for viability, T/C: stronger effect = lower value
In short: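 Patient-derived tumour cells were co-cultured with HUVEC and mesenchymal stem cells as multicellular spheroids at 37 °C. They were treated with POLQ inhibitors (novobiocin, ART-558, RP6685) alone or combined with other agents. Top concentrations were at or near clinical Cmax (otherwise 10 microM; SN-38 at 1 microM), decreasing in half-log steps.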

[1] = second compound 0.0316 µM, first compound 0.0316 µM
[2] = second compound 0.0316 µM, first compound 0.1 µM
[3] = second compound 0.0316 µM, first compound 0.316 µM
[4] = second compound 0.0316 µM, first compound 1 µM
[5] = second compound 0.0316 µM, first compound 3.16 µM
[6] = second compound 0.0316 µM, first compound 10 µM
[7] = second compound 0.1 µM, first compound 0.0316 µM
[8] = second compound 0.1 µM, first compound 0.1 µM
[9] = second compound 0.1 µM, first compound 0.316 µM
[10] = second compound 0.1 µM, first compound 1 µM
[11] = second compound 0.1 µM, first compound 3.16 µM
[12] = second compound 0.1 µM, first compound 10 µM
[13] = second compound 0.316 µM, first compound 0.0316 µM
[14] = second compound 0.316 µM, first compound 0.1 µM
[15] = second compound 0.316 µM, first compound 0.316 µM
[16] = second compound 0.316 µM, first compound 1 µM
[17] = second compound 0.316 µM, first compound 3.16 µM
[18] = second compound 0.316 µM, first compound 10 µM
[19] = second compound 1 µM, first compound 0.0316 µM
[20] = second compound 1 µM, first compound 0.1 µM
[21] = second compound 1 µM, first compound 0.316 µM
[22] = second compound 1 µM, first compound 1 µM
[23] = second compound 1 µM, first compound 3.16 µM
[24] = second compound 1 µM, first compound 10 µM
[25] = second compound 3.16 µM, first compound 0.0316 µM
[26] = second compound 3.16 µM, first compound 0.1 µM
[27] = second compound 3.16 µM, first compound 0.316 µM
[28] = second compound 3.16 µM, first compound 1 µM
[29] = second compound 3.16 µM, first compound 3.16 µM
[30] = second compound 3.16 µM, first compound 10 µM
[31] = second compound 10 µM, first compound 0.0316 µM
[32] = second compound 10 µM, first compound 0.1 µM
[33] = second compound 10 µM, first compound 0.316 µM
[34] = second compound 10 µM, first compound 1 µM
[35] = second compound 10 µM, first compound 3.16 µM
[36] = second compound 10 µM, first compound 10 µM
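Further: spheroids exposed to drugs for seven days before viability read.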
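Wherever viability, T/C is given: 100% = DMSO vehicle control wells.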

CCc1cc2c(N3CCc4c(cc(Cn5ccnc5)cc4-c4cn(C)nc4C(F)(F)F)C3=O)ccnc2c(OC)n1 + COC1C(OC(N)=O)C(O)C(Oc2ccc3c(O)c(NC(=O)c4ccc(O)c(CC=C(C)C)c4)c(=O)oc3c2C)OC1(C)C was tested, and the IC50 (second compound 0.0316 µM) was > 10 µM, the IC50 (second compound 0.1 µM) was > 10 µM and the IC50 (second compound 0.316 µM) was > 10 µM. The IC50 (second compound 1 µM) was > 10 µM, the IC50 (second compound 3.16 µM) was > 10 µM and the IC50 (second compound 10 µM) was > 10 µM. For the same compound, the viability, T/C [1] was 73.3%, the viability, T/C [2] was 86.7% and the viability, T/C [3] was 72.2%. For the same compound, the viability, T/C [4] was 94.4%, the viability, T/C [5] was 82.7% and the viability, T/C [6] was 65.9%. For the same compound, the viability, T/C [7] was 85.7%, the viability, T/C [8] was 77.2% and the viability, T/C [9] was 64.6%. For the same compound, the viability, T/C [10] was 83.8%, the viability, T/C [11] was 86.5% and the viability, T/C [12] was 64.5%. For the same compound, the viability, T/C [13] was 97.2%, the viability, T/C [14] was 62.6% and the viability, T/C [15] was 85%. For the same compound, the viability, T/C [16] was 73.2%, the viability, T/C [17] was 90.5% and the viability, T/C [18] was 70.3%. For the same compound, the viability, T/C [19] was 64.7%, the viability, T/C [20] was 81.9% and the viability, T/C [21] was 62.5%. For the same compound, the viability, T/C [22] was 63.9%, the viability, T/C [23] was 87.5% and the viability, T/C [24] was 62.1%. The viability, T/C [25] was 74.5%, the viability, T/C [26] was 85.5% and the viability, T/C [27] was 88.5%. It also gave a viability, T/C [28] of 59.5%, a viability, T/C [29] of 73.5% and a viability, T/C [30] of 72%. For the same compound, the viability, T/C [31] was 69.7%, the viability, T/C [32] was 67.2% and the viability, T/C [33] was 66.1%. It also gave a viability, T/C [34] of 73.6%, a viability, T/C [35] of 81.2% and a viability, T/C [36] of 72.2%.
With CNCc1ccc(-c2[nH]c3cc(F)cc4c3c2CCNC4=O)cc1 + Nc1ccc(C#CCN(C(=O)Cc2ncc(C(F)(F)F)cc2C(F)(F)F)c2ccc(F)cc2)nn1 the IC50 (second compound 0.0316 µM) was > 10 µM, the IC50 (second compound 0.1 µM) was > 10 µM and the IC50 (second compound 0.316 µM) was > 10 µM. The IC50 (second compound 1 µM) was > 10 µM, the IC50 (second compound 3.16 µM) was > 10 µM and the IC50 (second compound 10 µM) was > 10 µM. For the same compound, the viability, T/C [1] was 96.6%, the viability, T/C [2] was 104% and the viability, T/C [3] was 105%. The viability, T/C [4] was 77.2%, the viability, T/C [5] was 80% and the viability, T/C [6] was 96.1%. It also gave a viability, T/C [7] of 85.8%, a viability, T/C [8] of 80.5% and a viability, T/C [9] of 112%. For the same compound, the viability, T/C [10] was 91.8%, the viability, T/C [11] was 100% and the viability, T/C [12] was 96.5%. The viability, T/C [13] was 126%, the viability, T/C [14] was 102% and the viability, T/C [15] was 110%. It also gave a viability, T/C [16] of 95.7%, a viability, T/C [17] of 107% and a viability, T/C [18] of 89.2%. It also gave a viability, T/C [19] of 77.2%, a viability, T/C [20] of 78.2% and a viability, T/C [21] of 121%. It also gave a viability, T/C [22] of 86.7%, a viability, T/C [23] of 111% and a viability, T/C [24] of 127%. It also gave a viability, T/C [25] of 109%, a viability, T/C [26] of 79% and a viability, T/C [27] of 110%. The viability, T/C [28] was 106%, the viability, T/C [29] was 75% and the viability, T/C [30] was 104%. It also gave a viability, T/C [31] of 111%, a viability, T/C [32] of 99.5% and a viability, T/C [33] of 107%. It also gave a viability, T/C [34] of 116%, a viability, T/C [35] of 106% and a viability, T/C [36] of 130%.
O=C(Nc1ccc(O)c(NS(=O)(=O)c2ccc(F)cc2)c1)c1ccc(-c2ccccc2)cc1 + COC1C(OC(N)=O)C(O)C(Oc2ccc3c(O)c(NC(=O)c4ccc(O)c(CC=C(C)C)c4)c(=O)oc3c2C)OC1(C)C was tested, and the IC50 (second compound 0.0316 µM) was > 10 µM, the IC50 (second compound 0.1 µM) was > 10 µM and the IC50 (second compound 0.316 µM) was > 10 µM. For the same compound, the IC50 (second compound 1 µM) was > 10 µM, the IC50 (second compound 3.16 µM) was > 10 µM and the IC50 (second compound 10 µM) was > 10 µM. It also gave a viability, T/C [1] of 77.9%, a viability, T/C [2] of 134% and a viability, T/C [3] of 107%. The viability, T/C [4] was 102%, the viability, T/C [5] was 89.1% and the viability, T/C [6] was 66.7%. It also gave a viability, T/C [7] of 115%, a viability, T/C [8] of 97.3% and a viability, T/C [9] of 86.5%. The viability, T/C [10] was 97%, the viability, T/C [11] was 90.8% and the viability, T/C [12] was 72.4%. It also gave a viability, T/C [13] of 95.3%, a viability, T/C [14] of 97.9% and a viability, T/C [15] of 102%. It also gave a viability, T/C [16] of 75.9%, a viability, T/C [17] of 93.3% and a viability, T/C [18] of 73.6%. The viability, T/C [19] was 106%, the viability, T/C [20] was 109% and the viability, T/C [21] was 96.2%. It also gave a viability, T/C [22] of 93%, a viability, T/C [23] of 116% and a viability, T/C [24] of 77%. For the same compound, the viability, T/C [25] was 105%, the viability, T/C [26] was 93.3% and the viability, T/C [27] was 85.2%. It also gave a viability, T/C [28] of 109%, a viability, T/C [29] of 87.6% and a viability, T/C [30] of 75.2%. The viability, T/C [31] was 145%, the viability, T/C [32] was 99.7% and the viability, T/C [33] was 128%. For the same compound, the viability, T/C [34] was 84.4%, the viability, T/C [35] was 97.2% and the viability, T/C [36] was 67.6%.
For O=C(c1cc(Cc2n[nH]c(=O)c3ccccc23)ccc1F)N1CCN(C(=O)C2CC2)CC1 + Cc1cccc(N(C)C(=O)C2C(O)CCN2c2nc(C)cc(C(F)(F)F)c2C#N)c1, the IC50 (second compound 0.0316 µM) was > 10 µM, the IC50 (second compound 0.1 µM) was > 10 µM and the IC50 (second compound 0.316 µM) was > 10 µM. For the same compound, the IC50 (second compound 1 µM) was > 10 µM, the IC50 (second compound 3.16 µM) was > 10 µM and the IC50 (second compound 10 µM) was 9.21 µM. The viability, T/C [1] was 72.1%, the viability, T/C [2] was 93.2% and the viability, T/C [3] was 59.6%. It also gave a viability, T/C [4] of 96.7%, a viability, T/C [5] of 74.1% and a viability, T/C [6] of 65.8%. For the same compound, the viability, T/C [7] was 76.3%, the viability, T/C [8] was 81% and the viability, T/C [9] was 73.3%. For the same compound, the viability, T/C [10] was 97.3%, the viability, T/C [11] was 71.1% and the viability, T/C [12] was 63.7%. For the same compound, the viability, T/C [13] was 92.8%, the viability, T/C [14] was 108% and the viability, T/C [15] was 89.8%. For the same compound, the viability, T/C [16] was 89.6%, the viability, T/C [17] was 69.4% and the viability, T/C [18] was 58.1%. It also gave a viability, T/C [19] of 89.7%, a viability, T/C [20] of 86.8% and a viability, T/C [21] of 135%. It also gave a viability, T/C [22] of 85.1%, a viability, T/C [23] of 78.1% and a viability, T/C [24] of 69.9%. For the same compound, the viability, T/C [25] was 88.5%, the viability, T/C [26] was 99.2% and the viability, T/C [27] was 97.5%. It also gave a viability, T/C [28] of 85.2%, a viability, T/C [29] of 68.8% and a viability, T/C [30] of 54.5%. It also gave a viability, T/C [31] of 95.3%, a viability, T/C [32] of 78.7% and a viability, T/C [33] of 87.2%. It also gave a viability, T/C [34] of 88.2%, a viability, T/C [35] of 82.3% and a viability, T/C [36] of 47.5%.
